Laboratory results: patent US20070293560A1, “Compounds and compositions” (priority 2006, published 2007)

What was measured:
m-calpain = biological target: T1, m-calpain (Homo sapiens, UniProt P17655); experiment: m-calpain inhibition, fluorescence-based assay with BODIPY-casein substrate; format: biochemical
T1 sequence (P17655 1-700): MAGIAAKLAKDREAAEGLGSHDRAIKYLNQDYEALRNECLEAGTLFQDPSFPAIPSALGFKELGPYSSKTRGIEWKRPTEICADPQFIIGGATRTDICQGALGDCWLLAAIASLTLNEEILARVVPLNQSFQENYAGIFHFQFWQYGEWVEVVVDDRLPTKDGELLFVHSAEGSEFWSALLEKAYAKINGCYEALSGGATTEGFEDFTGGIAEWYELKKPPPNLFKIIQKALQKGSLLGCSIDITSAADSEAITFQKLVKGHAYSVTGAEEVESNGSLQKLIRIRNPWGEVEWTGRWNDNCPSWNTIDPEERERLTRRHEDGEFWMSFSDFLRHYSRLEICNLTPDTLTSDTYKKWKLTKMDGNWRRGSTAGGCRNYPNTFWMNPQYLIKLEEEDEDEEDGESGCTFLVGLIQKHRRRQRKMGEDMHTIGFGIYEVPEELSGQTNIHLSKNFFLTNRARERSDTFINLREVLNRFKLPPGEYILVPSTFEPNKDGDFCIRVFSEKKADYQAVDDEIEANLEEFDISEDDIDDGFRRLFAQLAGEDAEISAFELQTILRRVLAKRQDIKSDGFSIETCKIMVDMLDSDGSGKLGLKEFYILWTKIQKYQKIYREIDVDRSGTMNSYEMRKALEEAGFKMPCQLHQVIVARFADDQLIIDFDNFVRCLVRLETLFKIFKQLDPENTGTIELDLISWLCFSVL
T1 sequence (P04632 1-268 partner): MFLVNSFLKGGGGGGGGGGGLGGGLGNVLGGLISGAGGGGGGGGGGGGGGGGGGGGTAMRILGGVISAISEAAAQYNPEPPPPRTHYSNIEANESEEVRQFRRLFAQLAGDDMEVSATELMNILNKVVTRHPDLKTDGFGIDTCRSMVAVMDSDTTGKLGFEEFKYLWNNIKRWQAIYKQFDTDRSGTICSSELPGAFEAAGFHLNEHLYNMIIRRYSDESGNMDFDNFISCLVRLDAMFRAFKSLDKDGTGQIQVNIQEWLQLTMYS
Experimental: The peptidic alcohol 3 and aldehyde 6 were assayed against m-calpain using a BODIPY-casein substrate in the fluorescence-based assay procedure of V. F. Thompson, S. Saldana, J. Cong and D. E. Goll, Anal. Biochem. 2000, 279, 170.
The results of the enzyme inhibition assay for 3 and 6 are graphically represented in FIGS. 1 and 2, respectively.

[1] = Detection of 6 in ovine body parts by LCMS after ointment application to one eye; format: in vivo, lamb; details: for Compound 6 detected: 1% ointment 50 mg three times in one day
Experimental: (§1) An ointment (50 mg) comprising 1% of the peptidic aldehyde 6 was applied to one eye of a lamb, three times in one day.
Various body parts were assayed for trace amounts of 6 by LCMS using a method similar to that described by A. Maltese and C. Bucolo, Biomedical Chromatography 2000, 16, 274. A rapid high-performance liquid chromatographic method using a C18 reversed-phase column with UV detection at 254 nm was used for the analysis of 6 in ovine samples. A water solution containing 2% ZnSO4.7H2O was used to deproteinise the samples. The mobile phase consisted of CH3CN and H2O containing 0.05% TFA.

adult ovine lens = experiment: In vitro lens culture assay, calcium induced cataract; format: cell-based; details: ovine lens preincubated with 0.8 μM for 2 hours, then 5 mM calcium chloride for 20 hours
Experimental: The ability of the peptidic aldehyde 6 to prevent the formation of a calcium induced cataract in adult ovine lens was assayed using the procedure of J. Sanderson, J. M. Marciantonio and G. A. Duncan, Invest. Opth. Vis. Sci. 2000, 41, 2255. Three pairs of lenses were tested. One lens from each pair was preincubated with [0.8 μM] 6 for 2 hours while the other was incubated in EMEM-culture media at 35° C., 5% CO2. Then 5 mM calcium chloride was added onto both the inhibitor treated lens and the other lens, and both lenses were then incubated for 20 hours. One pair of lenses was photographed when the assay had been completed.

cataracts = experiment: In vivo cataract progression in lambs, ointment on the eye; design: species or system lamb; details: 1% ointment (25 mg) twice daily, 24 lambs
Experimental: An ointment (25 mg) comprising 1% of the peptidic aldehyde 6 was applied twice daily to the left eye of 24 lambs for three months starting when they were two to three months old. The progression of cataracts was determined by a veterinary opthalmologist with a slit-lamp microscope.

[2] = In vivo eye irritation in a lamb after ointment application; details: 1% ointment (50 mg) applied to one eye of a lamb, three times in one day
Experimental: as §1

[3] = Ovine cornea penetration, modified Ussing chamber and LCMS; format: in vitro ADME; details: adult ovine cornea, Ussing chamber, 37° C., 3 hours, LCMS
Experimental: The peptidic aldehyde 6 was assayed for ovine cornea penetration using a modified Ussing chamber and LCMS based on the procedure of Youn Bok Chung, Kun Han and Vincent H. L. Lee, Pharmaceutical Research, 2000, 15, 1882. Compound 6 (3.5 mg) was dissolved in buffer A (5 mL) and added to the epithelial side a modified Ussing chamber with a pre-mounted adult ovine cornea. Buffer B (5 mL) was added to the endothelial side of the chamber and the whole chamber was incubated 37° C. for 3 hours, 5% CO2. Samples were taken from both sides of the chamber at time=0 and 180 minutes. The samples were analysed for compound 6 using LCMS.

Molecule `CC(C)C[C@@H](CO)NC(=O)[C@@H](NC(=O)c1ccc(C=O)[nH]1)C(C)C` [Compound 3, 5-Formyl-1H-pyrrole-2-carboxylic acid [(S)-1-((S)-1-hydroxymethyl-3-methyl-butylcarbamoyl)-2-methyl-propyl]-amide] has an IC50 (m-calpain) of 0.97 µM.
With `CC(C)C[C@@H](CO)NC(=O)[C@@H](NC(=O)c1ccc(C=O)o1)C(C)C` [Compound 4, 5-Formyl-furan-2-carboxylic acid [(S)-1-((S)-1-hydroxymethyl-3-methyl-butylcarbamoyl)-2-methyl-propyl]-amide] the IC50 (m-calpain) was 120 µM.
For `CC(C)C[C@@H](CO)NC(=O)[C@@H](NC(=O)c1ccc(C=O)s1)C(C)C` [Compound 5, 5-Formyl-thiophene-2-carboxylic acid [(S)-1-((S)-1-hydroxymethyl-3-methyl-butylcarbamoyl)-2-methyl-propyl]-amide], the IC50 (m-calpain) was 30.4 µM.
With `CC(C)C[C@@H](C=O)NC(=O)[C@@H](NC(=O)c1ccc(C=O)[nH]1)C(C)C` [Compound 6, 5-Formyl-1H-pyrrole-2-carboxylic acid [(S)-1-((S)-1-formyl-3-methyl-butylcarbamoyl)-2-methyl-propyl]-amide] the Amount detected ([1]; Aqueous humour (treated eye)) was 8 ng, the “Compound 6 detected” value ([1]; Aqueous humour (treated eye)) was “yes” and the “Compound 6 detected” value ([1]; Kidney) was “no”. For the same molecule, the Amount detected ([1]; Lens (treated eye)) was 6 ng, the “Compound 6 detected” value ([1]; Lens (treated eye)) was “yes” and the “Compound 6 detected” value ([1]; Liver) was “no”. For the same molecule, the “Compound 6 detected” value ([1]; Plasma) was “no”, the Amount detected ([1]; Vitreous humour (treated eye)) was 4 ng and the “Compound 6 detected” value ([1]; Vitreous humour (treated eye)) was “yes”. For the same molecule, the “Inhibition of cataract formation” value (adult ovine lens) was “yes”, the “Cataract progression, treated left eye” value (cataracts; first month following treatment (p<0.05)) was “significantly slower cataract progression” and the “Cataract progression, treated versus untreated eyes” value (cataracts; following two months) was “no significant differences”. For the same molecule, the Eye irritation [2] was “No sign of irritation”, the Cornea penetration [3] was “yes” and the IC50 (m-calpain) was 0.03 µM.
`CC(C)C[C@@H](CO)NC(=O)[C@@H](NC(=O)c1ccc(C=O)o1)C(C)C` [Compound 7, 5-Formyl-furan-2-carboxylic acid [(S)-1-((S)-1-hydroxymethyl-3-methyl-butylcarbamoyl)-2-methyl-propyl]-amide] showed a melting point of 46 to 48 °C.
